Measurements from patent US7405205B2, “Antitumor antisense sequences directed against R1 and R2 components of ribonucleotide reductase” (Lorus Therapeutics Inc., priority 1996, dated 2008).

How the values were obtained:
[1] = system: wild type (W.T.) mouse L cells; assay: Drug sensitivity by relative colony forming efficiency; type: cell-based
[2] = system: H2 (H-2) hydroxyurea resistant mouse L cells; assay: as above; type: cell-based
[3] = system: H4 (H-4) hydroxyurea resistant mouse L cells; assay: as above; type: cell-based
[4] = system: LHF hydroxyurea resistant mouse L cells; assay: as above; type: cell-based
[5] = system: SC2 hydroxyurea resistant mouse L cells; assay: as above; type: cell-based
[6] = system: B3/SH cells (BALB/c 3T3, empty vector); assay: as above; type: cell-based, mouse
[7] = system: B3/mR2 cells (BALB/c 3T3, R2 expression vector); assay: as above; type: cell-based, mouse
[8] = system: B3/R2c2 cells (clone of B3/mR2); assay: as above; type: cell-based, mouse
[9] = system: N/SH cells (NIH-3T3, empty vector); assay: as above; type: cell-based, mouse
[10] = system: N/R2-4 cells (NIH-3T3, R2 expression vector); assay: as above; type: cell-based, mouse
[11] = system: N/R2+ASR2 cells (NIH-3T3, R2 and R2 antisense vectors); assay: as above; type: cell-based, mouse
[12] = system: RP3/SH cells (10T½, H-ras and mutant p53); assay: as above; type: cell-based, mouse
[13] = system: RP3/ASR2 cells (RP3 with R2 antisense vector); assay: as above; type: cell-based, mouse
[14] = system: RP6/SH cells (10T½, H-ras and mutant p53); assay: as above; type: cell-based, mouse
[15] = system: RP6/ASR2 cells (RP6 with R2 antisense vector); assay: as above; type: cell-based, mouse
[16] = system: HeLa 1 mM cells; assay: Sensitisation to PALA and MTX by antisense, relative colony forming efficiency; type: cell-based, human; conditions: without AS-II-2229B-20
Method: (§1) Drug Selections: Cells ranging in numbers from 500 to 1-2×10^5 were added to 100 mm tissue culture plates in growth medium containing 10% dialyzed fetal bovine serum, and in the absence or presence of drug [Huang et al., 1995a; Choy et al., 1988]. The culture medium was replaced with fresh medium every week for two to three weeks. Surviving cells were visualized by methylene blue staining, and colonies of about 50 cells or more were scored [Huang et al., 1995a]. The relative colony forming efficiency was defined as the ability to produce colonies in the presence of a drug divided by that ability in the absence of drug.
(§2) Colony forming efficiency was determined as previously reported [Huang and Wright, 1994]. The cells were cultured for 24 hours at 37° C. in growth medium with 10% fetal bovine serum. The cells were washed in 5 ml phosphate buffered saline, pH 7.2, once prior to lipofectin+/−oligonucleotide treatment.
(§3) The oligonucleotides being tested were added to cell cultures in the presence of 2.5 μg of DOTMA/DOPE (Lipofectin; Life Technologies, Inc.) for four hours. The oligonucleotide was tested at 0.2 μM unless otherwise indicated. Controls were the cultures treated with lipofectin but without the oligonucleotide. After 4 hours the medium containing the oligonucleotide was removed and washed with 5 ml of growth medium. The cells were then cultured in growth medium containing 10% fetal bovine serum for seven to ten days. Surviving cells were visualized by methylene blue staining, and colonies were scored. In some experiments cell aliquotes were removed from the culture and viability was determined using the trypan blue exclusion test [Phillips, 1973]. Results were analyzed as percent of surviving cells compared to control cells.
(§4) Based on Example 2, treatment of human tumor cells with very low concentrations of short antisense sequences was tested to determine if these constructs could sensitize the tumor cells to inhibitory effects of other chemotherapeutic drugs. […] These observations indicate that antisense compounds targeting the R2 message can act synergistically with well known chemotherapeutic agents.

[17] = system: HeLa S3 cells; assay: as above; type: cell-based, human; conditions: PALA 20 μM, without AS-II-2229B-20
Method: as §1, §2, §3, §4

Structure (SMILES): O=C(O)C[C@H](NC(=O)CP(=O)(O)O)C(=O)O [PALA, N-(phosphonacetyl)-L-aspartate]
- Relative Colony Forming Efficiencies ([1]; PALA 20 μM): 172.3 ± 126.3 × 10^4
- Relative Colony Forming Efficiencies ([1]; PALA 30 μM): 50.3 ± 20.5 × 10^4
- Relative Colony Forming Efficiencies ([1]; PALA 40 μM): 15.0 ± 7.0 × 10^4
- Relative Colony Forming Efficiencies ([1]; PALA 50 μM): 3.6 ± 1.1 × 10^4
- Relative Colony Forming Efficiencies ([1]; PALA 60 μM): 1.3 ± 0.4 × 10^4
- Relative Colony Forming Efficiencies ([2]; PALA 20 μM): 406.7 ± 202.2 × 10^4
- Relative Colony Forming Efficiencies ([2]; PALA 30 μM): 39.4 ± 16.4 × 10^4
- Relative Colony Forming Efficiencies ([2]; PALA 40 μM): 23.3 ± 10.4 × 10^4
- Relative Colony Forming Efficiencies ([2]; PALA 50 μM): 7.9 ± 1.7 × 10^4
- Relative Colony Forming Efficiencies ([2]; PALA 60 μM): 3.6 ± 0.6 × 10^4
- Relative Colony Forming Efficiencies ([3]; PALA 20 μM): 322.5 ± 36.4 × 10^4
- Relative Colony Forming Efficiencies ([3]; PALA 30 μM): 84.0 ± 30.0 × 10^4
- Relative Colony Forming Efficiencies ([3]; PALA 40 μM): 43.3 ± 9.6 × 10^4
- Relative Colony Forming Efficiencies ([3]; PALA 50 μM): 23.2 ± 0.5 × 10^4
- Relative Colony Forming Efficiencies ([3]; PALA 60 μM): 11.1 ± 1.4 × 10^4
- Relative Colony Forming Efficiencies ([4]; PALA 20 μM): 233.3 ± 3.6 × 10^4
- Relative Colony Forming Efficiencies ([4]; PALA 30 μM): 78.8 ± 7.9 × 10^4
- Relative Colony Forming Efficiencies ([4]; PALA 40 μM): 46.5 ± 9.9 × 10^4
- Relative Colony Forming Efficiencies ([4]; PALA 50 μM): 25.0 ± 6.8 × 10^4
- Relative Colony Forming Efficiencies ([4]; PALA 60 μM): 10.7 ± 3.0 × 10^4
- Relative Colony Forming Efficiencies ([5]; PALA 20 μM): 850.1 ± 325.2 × 10^4
- Relative Colony Forming Efficiencies ([5]; PALA 30 μM): 187.6 ± 46.4 × 10^4
- Relative Colony Forming Efficiencies ([5]; PALA 40 μM): 37.5 ± 8.7 × 10^4
- Relative Colony Forming Efficiencies ([5]; PALA 50 μM): 47.5 ± 35.8 × 10^4
- Relative Colony Forming Efficiencies ([5]; PALA 60 μM): 17.6 ± 1.2 × 10^4
- Relative Colony Forming Efficiencies ([6]; PALA 10 μM): 17.9 ± 11.0 × 10^4
- Relative Colony Forming Efficiencies ([6]; PALA 20 μM): 0.39 ± 0.18 × 10^4
- Relative Colony Forming Efficiencies ([6]; PALA 40 μM): 0.35 ± 0.01 × 10^4
- Relative Colony Forming Efficiencies ([6]; PALA 50 μM): 0.24 ± 0.14 × 10^4
- Relative Colony Forming Efficiencies ([6]; PALA 60 μM): 0.12 ± 0.05 × 10^4
- Relative Colony Forming Efficiencies ([6]; PALA 80 μM): 0.17 ± 0.08 × 10^4
- Relative Colony Forming Efficiencies ([7]; PALA 10 μM): 965.0 ± 529.7 × 10^4
- Relative Colony Forming Efficiencies ([7]; PALA 20 μM): 120.1 ± 28.4 × 10^4
- Relative Colony Forming Efficiencies ([7]; PALA 40 μM): 25.0 ± 4.6 × 10^4
- Relative Colony Forming Efficiencies ([7]; PALA 50 μM): 27.6 ± 8.9 × 10^4
- Relative Colony Forming Efficiencies ([7]; PALA 60 μM): 25.0 ± 6.4 × 10^4
- Relative Colony Forming Efficiencies ([7]; PALA 80 μM): 27.1 ± 6.75 × 10^4
- Relative Colony Forming Efficiencies ([8]; PALA 10 μM): 1230.0 ± 97.0 × 10^4
- Relative Colony Forming Efficiencies ([8]; PALA 20 μM): 55.1 ± 15.6 × 10^4
- Relative Colony Forming Efficiencies ([8]; PALA 40 μM): 20.2 ± 6.8 × 10^4
- Relative Colony Forming Efficiencies ([8]; PALA 50 μM): 15.9 ± 4.0 × 10^4
- Relative Colony Forming Efficiencies ([8]; PALA 60 μM): 18.7 ± 5.3 × 10^4
- Relative Colony Forming Efficiencies ([8]; PALA 80 μM): 20.0 ± 4.9 × 10^4
- Relative Colony Forming Efficiencies ([9]; PALA 10 μM): 5.28 ± 1.5 × 10^4
- Relative Colony Forming Efficiencies ([9]; PALA 15 μM): 5.83 ± 2.7 × 10^4
- Relative Colony Forming Efficiencies ([9]; PALA 20 μM): 0.30 ± 0.1 × 10^4
- Relative Colony Forming Efficiencies ([9]; PALA 25 μM): 0.53 ± 0.3 × 10^4
- Relative Colony Forming Efficiencies ([9]; PALA 30 μM): 0.48 ± 0.08 × 10^4
- Relative Colony Forming Efficiencies ([9]; PALA 40 μM): 0.27 ± 0.2 × 10^4
- Relative Colony Forming Efficiencies ([10]; PALA 10 μM): 6.22 ± 3.3 × 10^4
- Relative Colony Forming Efficiencies ([10]; PALA 15 μM): 10.0 ± 5.5 × 10^4
- Relative Colony Forming Efficiencies ([10]; PALA 20 μM): 1.71 ± 1.2 × 10^4
- Relative Colony Forming Efficiencies ([10]; PALA 25 μM): 0.8 ± 0.7 × 10^4
- Relative Colony Forming Efficiencies ([10]; PALA 30 μM): 1.03 ± 0.07 × 10^4
- Relative Colony Forming Efficiencies ([10]; PALA 40 μM): 0.14 ± 0.08 × 10^4
- Relative Colony Forming Efficiencies ([11]; PALA 10 μM): 1.81 ± 0.8 × 10^4
- Relative Colony Forming Efficiencies ([11]; PALA 15 μM): 0.58 ± 0.3 × 10^4
- Relative Colony Forming Efficiencies ([11]; PALA 20 μM): 0.04 ± 0.04 × 10^4
- Relative Colony Forming Efficiencies ([11]; PALA 25 μM): 0.04 ± 0.04 × 10^4
- Relative Colony Forming Efficiencies ([11]; PALA 30 μM): 0.12 ± 0.12 × 10^4
- Relative Colony Forming Efficiencies ([11]; PALA 40 μM): 0.04 ± 0.04 × 10^4
- Relative Colony Forming Efficiencies ([12]; PALA 10 μM): 2569 ± 338 × 10^4
- Relative Colony Forming Efficiencies ([12]; PALA 20 μM): 123.4 ± 19.3 × 10^4
- Relative Colony Forming Efficiencies ([12]; PALA 30 μM): 45.2 ± 7.8 × 10^4
- Relative Colony Forming Efficiencies ([12]; PALA 40 μM): 15.0 ± 4.9 × 10^4
- Relative Colony Forming Efficiencies ([12]; PALA 50 μM): 9.3 ± 3.6 × 10^4
- Relative Colony Forming Efficiencies ([12]; PALA 60 μM): 3.9 ± 1.6 × 10^4
- Relative Colony Forming Efficiencies ([13]; PALA 10 μM): 1183 ± 384 × 10^4
- Relative Colony Forming Efficiencies ([13]; PALA 20 μM): 86.1 ± 32.9 × 10^4
- Relative Colony Forming Efficiencies ([13]; PALA 30 μM): 19.5 ± 4.7 × 10^4
- Relative Colony Forming Efficiencies ([13]; PALA 40 μM): 4.7 ± 0.6 × 10^4
- Relative Colony Forming Efficiencies ([13]; PALA 50 μM): 2.1 ± 0.8 × 10^4
- Relative Colony Forming Efficiencies ([13]; PALA 60 μM): 0.3 ± 0.2 × 10^4
- Relative Colony Forming Efficiencies ([14]; PALA 10 μM): 4619 ± 648 × 10^4
- Relative Colony Forming Efficiencies ([14]; PALA 20 μM): 1220 ± 255 × 10^4
- Relative Colony Forming Efficiencies ([14]; PALA 30 μM): 450 ± 129 × 10^4
- Relative Colony Forming Efficiencies ([14]; PALA 40 μM): 271 ± 68 × 10^4
- Relative Colony Forming Efficiencies ([14]; PALA 50 μM): 109 ± 23 × 10^4
- Relative Colony Forming Efficiencies ([14]; PALA 60 μM): 55.5 ± 13 × 10^4
- Relative Colony Forming Efficiencies ([15]; PALA 10 μM): 2083 ± 960 × 10^4
- Relative Colony Forming Efficiencies ([15]; PALA 20 μM): 368 ± 154 × 10^4
- Relative Colony Forming Efficiencies ([15]; PALA 30 μM): 316 ± 171 × 10^4
- Relative Colony Forming Efficiencies ([15]; PALA 40 μM): 116 ± 54 × 10^4
- Relative Colony Forming Efficiencies ([15]; PALA 50 μM): 41.7 ± 23 × 10^4
- Relative Colony Forming Efficiencies ([15]; PALA 60 μM): 13.2 ± 6.3 × 10^4
- Relative colony Forming Efficiency ([16]; PALA 20 μM): 377 ± 21
- Relative colony Forming Efficiency ([16]; PALA 30 μM): 311 ± 9.5
- Relative colony Forming Efficiency [17]: 350 ± 50
